Experimental data published in patent US20230144211A1, “ANTIFOLATE LINKER-DRUGS AND ANTIBODY-DRUG CONJUGATES” (Byondis B.V., priority 2020, published 2023).

What was measured:
A-549 cells = experiment: In vitro cell viability assay (CellTiter-Glo, 6 days); format: cell-based; conditions: Homo sapiens, A549; free antifolate drugs, Table 1a; $ steep hillslope
Protocol: (§1) Human tumor cell lines SK-BR-3, SW-620, A-549, BT-474, Jurkat Clone E6-1, AU-565, and SK-OV-3 were obtained from American Type Culture Collection (Rockville, Md., USA). FaDu, BxPC-3, HeLa, MV4-11, and RAJI cell lines were obtained from Deutsche Sammlung von Mikroorganismen und Zellkulturen (Leipzig, Germany). Jurkat NucLight Red cells were obtained from Essen BioScience Inc. (Ann Arbor, Mich., USA). SK-BR-3 and SK-OV-3 cells were cultured in McCoys 5A medium (Lonza; Walkersville, Md., USA) supplemented with 10% v/w Fetal Bovine Serum (FBS), Heat-inactivated (HI) (Gibco-Life Technologies; Carlsbad, Calif.) and 80 U/mL Pen/Strep (Gibco-Life Technologies), at 37° C. in a humidified incubator under 5% CO2 atmosphere. SW-620 cells were similarly maintained in RPMI 1640 medium (Lonza), containing 10% v/w FBS HI and 80 U/mL Pen/Strep. A-549 cells were similarly maintained in F-12K Nutrient Mixture (1×) (Gibco-Life Technologies) media supplemented with 80 U/mL Pen/Strep and 5% v/w FBS, which was Qualified (Q) (Gibco-Life Technologies). BT-474 and AU-565 cells were similarly maintained in RPMI 1640 medium (Lonza), containing 10% v/w FBS, which was Qualified (Q) (Gibco-Life Technologies), and 80 U/mL Pen/Strep. Jurkat Clone E6-1, BxPC-3, HeLa, MV4-11, and RAJI cells were similarly maintained in RPMI 1640 medium (Lonza), containing 10% v/w FBS HI and 80 U/mL Pen/Strep. Jurkat NucLight Red cells were similarly maintained in RPMI 1640 medium (Lonza), containing 10% v/w FBS HI, 80 U/mL Pen/Strep and 0.5 μg/mL Puromycin (Gibco-Life Technologies). FaDu cells were cultured in EMEM medium (Lonza) supplemented with 10% v/w FBS HI (Gibco-Life Technologies), 1× GlutaMAX (Gibco-Life Technologies), and 80 U/mL Pen/Strep (Gibco-Life Technologies), at 37° C. in a humidified incubator under 5% CO2 atmosphere.
(§2) Cells in complete growth medium were plated in 96-well plates (90 μL/well) and incubated at 37° C., 5% CO2 at the following cell densities: 6500 SK-BR-3, 4000 SW-620, 2500 A-549, 10000 BT-474, 3000 Jurkat Clone E6-1, 5000 AU-565, 1250 FaDu, 1250 BxPC-3, 1000 HeLa, 7500 MV4-11, 1000 RAJI, 3000 Jurkat NucLight Red, and 4000 SK-OV-3 cells per well. After an overnight incubation, 10 serial log 10 dilutions of the free drugs were made in DMSO (Sigma-Aldrich). These free drug dose-response curves were 10-times further diluted in complete growth medium. For the ADCs according to the invention 10 serial log 10 dilutions were made in complete growth medium. 10 μL of a composition comprising a free drug or an ADC according to the invention was added to the assay plate (final DMSO content for free drugs was 1%). […] Cell viability was assessed after 6 days using a luminescent assay kit (CellTiter-Glo™ (CTG), Promega Corporation) according to the manufacturer's instructions. Percentage cell survival was calculated by dividing the measured luminescence for each free drug or ADC according to the concentration with the average mean of untreated cells (1% or 0.1% DMSO control (for free drugs) or 100% complete growth medium (for ADCs)) multiplied by 100.
(§3) Curves were fitted by non-linear regression using the sigmoidal dose-response equation with variable slope (four parameters) using curve-fitting software (GraphPad Prism, version 9.4.0 for Windows, GraphPad, San Diego, Calif. or Electronic Laboratory Notebook (ELN) add-in BioAssay, version 19.1.0.0218, Perkin Elmer, Waltham, Mass.). Relative IC50 values were calculated as the concentration that gives a response halfway between bottom and top of the curve, when using a 4-parameter logistic fit. Data were reported as mean IC50 value of at least one experiment performed in duplicate.

SW-620 cells = experiment: as above; format: cell-based; conditions: Homo sapiens, free antifolate drugs, Table 1a
Protocol: as §1, with “FaDu,” for “Human tumor cell lines SK-BR-3, SW-620, A-549, BT-474, Jurkat Clone E6-1, AU-565, and SK-OV-3 were obtained from American Type Culture Collection (Rockville, Md., USA). FaDu,”, “Jurkat Clone E6-1, BxPC-3, HeLa, MV4-11, and RAJI cells were similarly maintained in RPMI 1640 medium (Lonza), containing 10% v/w FBS HI and 80 U/mL Pen/Strep.” left out
as §2, with “After” for “Cells in complete growth medium were plated in 96-well plates (90 μL/well) and incubated at 37° C., 5% CO2 at the following cell densities: 6500 SK-BR-3, 4000 SW-620, 2500 A-549, 10000 BT-474, 3000 Jurkat Clone E6-1, 5000 AU-565, 1250 FaDu, 1250 BxPC-3, 1000 HeLa, 7500 MV4-11, 1000 RAJI, 3000 Jurkat NucLight Red, and 4000 SK-OV-3 cells per well. After”
as §3

SK-BR-3 cells = experiment: as above; format: cell-based, human; conditions: Homo sapiens, SK-BR-3, free antifolate drugs
Protocol: as §1, with “FaDu,” for “Human tumor cell lines SK-BR-3, SW-620, A-549, BT-474, Jurkat Clone E6-1, AU-565, and SK-OV-3 were obtained from American Type Culture Collection (Rockville, Md., USA). FaDu,”, “Jurkat Clone E6-1, BxPC-3, HeLa, MV4-11, and RAJI cells were similarly maintained in RPMI 1640 medium (Lonza), containing 10% v/w FBS HI and 80 U/mL Pen/Strep.” left out
(§4) After an overnight incubation, 10 serial log 10 dilutions of the free drugs were made in DMSO (Sigma-Aldrich). These free drug dose-response curves were 10-times further diluted in complete growth medium. For the ADCs according to the invention 10 serial log 10 dilutions were made in complete growth medium. 10 μL of a composition comprising a free drug or an ADC according to the invention was added to the assay plate (final DMSO content for free drugs was 1%). […] […] Percentage cell survival was calculated by dividing the measured luminescence for each free drug or ADC according to the concentration with the average mean of untreated cells (1% or 0.1% DMSO control (for free drugs) or 100% complete growth medium (for ADCs)) multiplied by 100.
as §3

[1] = test system: Jurkat NucLight Red cells; experiment: as above; format: cell-based, human; conditions: Homo sapiens, Jurkat, free antifolate drugs
Protocol: as §1, with “FaDu,” for “Human tumor cell lines SK-BR-3, SW-620, A-549, BT-474, Jurkat Clone E6-1, AU-565, and SK-OV-3 were obtained from American Type Culture Collection (Rockville, Md., USA). FaDu,”, “Jurkat Clone E6-1, BxPC-3, HeLa, MV4-11, and RAJI cells were similarly maintained in RPMI 1640 medium (Lonza), containing 10% v/w FBS HI and 80 U/mL Pen/Strep.” left out
After an overnight incubation, 10 serial log 10 dilutions of the free drugs were made in DMSO (Sigma-Aldrich). These free drug dose-response curves were 10-times further diluted in complete growth medium. For the ADCs according to the invention 10 serial log 10 dilutions were made in complete growth medium. 10 μL of a composition comprising a free drug or an ADC according to the invention was added to the assay plate (final DMSO content for free drugs was 1%). […] Cell viability was assessed after 6 days using a luminescent assay kit (CellTiter-Glo™ (CTG), Promega Corporation) according to the manufacturer's instructions. Percentage cell survival was calculated by dividing the measured luminescence for each free drug or ADC according to the concentration with the average mean of untreated cells (1% or 0.1% DMSO control (for free drugs) or 100% complete growth medium (for ADCs)) multiplied by 100.
as §3

Human tumor cell lines = experiment: In vitro cell viability assays, free antifolate drugs, overall comparison; format: cell-based; conditions: compared with talotrexin or parent compound
Protocol: as §1, §2, §3

AU-565 cells = experiment: In vitro cell viability assay (CellTiter-Glo, 6 days); format: cell-based, human; conditions: Homo sapiens, AU565, free antifolate drugs
Protocol: as §1, with “FaDu,” for “Human tumor cell lines SK-BR-3, SW-620, A-549, BT-474, Jurkat Clone E6-1, AU-565, and SK-OV-3 were obtained from American Type Culture Collection (Rockville, Md., USA). FaDu,”, “Jurkat Clone E6-1, BxPC-3, HeLa, MV4-11, and RAJI cells were similarly maintained in RPMI 1640 medium (Lonza), containing 10% v/w FBS HI and 80 U/mL Pen/Strep.” left out
as §4, §3

IC50 (A-549 cells) | IC50 (SW-620 cells) | IC50 (SK-BR-3 cells; Table 1a) | SMILES | also measured
2.3 nM | 2.9 nM | 2.1 nM | CN(Cc1cnc2nc(N)nc(N)c2n1)c1ccc(C(=O)N[C@@H](CCCNC(=O)c2ccc(N)cc2C(=O)O)C(=O)O)cc1 [XT21, (S)-5-amino-2-((4-carboxy-4-(4-(((2,4-diaminopteridin-6-yl)methyl)(methyl)amino)benzamido)butyl)carbamoyl)benzoic acid] | 
2 nM | 2.1 nM | 1.9 nM | Nc1ccc(C(=O)NCCC[C@H](NC(=O)c2ccc(NCc3cnc4nc(N)nc(N)c4n3)cc2)C(=O)O)c(C(=O)O)c1 [XT10, (S)-5-amino-2-((4-carboxy-4-(4-(((2,4-diaminopteridin-6-yl)methyl)-amino)benzamido)butyl)carbamoyl)benzoic acid] | 
2.3 nM | 1.1 nM | 1 nM | Nc1ccc(C(=O)NCCC[C@H](NC(=O)c2ccc(CCc3cnc4nc(N)nc(N)c4n3)cc2)C(=O)O)c(C(=O)O)c1 [XT25, (S)-5-amino-2-((4-carboxy-4-(4-(2-(2,4-diaminopteridin-6-yl)ethyl)benzamido)butyl)-carbamoyl)benzoic acid] | 
 |  |  | Nc1ccc(C(=O)NCCC[C@H](NC(=O)c2ccc(NCc3ccc4nc(N)nc(N)c4c3Cl)cc2)C(=O)O)c(-c2nnn[nH]2)c1 [XT110, (S)-5-(4-Amino-2-(1H-tetrazol-5-yl)benzamido)-2-(4-(((2,4-diamino-5-chloroquinazolin-6-yl)methyl)amino)benzamido)pentanoic acid] | IC50 ([1]; Table 1b): 0.75 nM; IC50 ([1]; Table 1c): 0.92 nM; antifolate activity, comparison in words (Human tumor cell lines): strongly increased the antifolate activity; IC50 (AU-565 cells; Table 1b): 0.36 nM; IC50 (AU-565 cells; Table 1c): 0.44 nM; IC50 (SK-BR-3 cells; Table 1b, # no full dose-response curve): 0.41 nM; IC50 (SK-BR-3 cells; Table 1c): 0.54 nM
20 nM | 10 nM | 17 nM | Nc1ccc(C(=O)O)c(C(=O)NCCC[C@H](NC(=O)c2ccc(NCc3cnc4nc(N)nc(N)c4n3)cc2)C(=O)O)c1 [XT9, (S)-4-Amino-2-((4-carboxy-4-(4-(((2,4-diaminopteridin-6-yl)methyl)amino)benzamido)butyl)carbamoyl)-benzoic acid] | 
19 nM | 12 nM | 25 nM | CN(Cc1cnc2nc(N)nc(N)c2n1)c1ccc(C(=O)N[C@@H](CCCNC(=O)c2cc(N)ccc2C(=O)O)C(=O)O)cc1 [XT20, (S)-4-Amino-2-((4-carboxy-4-(4-(((2,4-diaminopteridin-6-yl)methyl)(methyl)amino)benzamido)butyl)-carbamoyl)benzoic acid] | 
27 nM | 7.5 nM | 18 nM | Nc1ccc(C(=O)O)c(C(=O)NCCC[C@H](NC(=O)c2ccc(CCc3cnc4nc(N)nc(N)c4n3)cc2)C(=O)O)c1 [XT24, (S)-4-Amino-2-((4-carboxy-4-(4-(2-(2,4-diaminopteridin-6-yl)ethyl)benzamido)butyl)carbamoyl) benzoic acid] | 
16 nM | 2.5 nM | 3.1 nM | Nc1ccc(C(=O)NCCC[C@H](NC(=O)c2ccc(NCc3cnc4nc(N)nc(N)c4n3)cc2)C(=O)O)cc1 [XT35, (S)-5-(4-Aminobenzamido)-2-(4-(((2,4-diaminopteridin-6-yl)methyl)amino)benzamido) pentanoic acid] | antifolate activity, comparison in words (Human tumor cell lines): less active than talotrexin
42 nM | 7.5 nM | 17 nM | CN(Cc1cnc2nc(N)nc(N)c2n1)c1ccc(C(=O)N[C@@H](CCCNC(=O)c2ccc(N)cc2)C(=O)O)cc1 [XX12, (S)-5-(4-aminobenzamido)-2-(4-(((2,4-diaminopteridin-6-yl)methyl)(methyl)amino)benzamido) pentanoic acid] | antifolate activity, comparison in words (Human tumor cell lines): less active than talotrexin
1.97 nM | 1.41 nM | 0.92 nM | Cc1c(CNc2ccc(C(=O)N[C@@H](CCCNC(=O)c3ccccc3C(=O)O)C(=O)O)cc2)ccc2nc(N)nc(N)c12 [Comparative compound 1, reference compound] | 
~2.5 nM |  | 2.2 nM | Nc1ccc(-c2cn(CCC[C@H](NC(=O)c3ccc(NCc4cnc5nc(N)nc(N)c5n4)cc3)C(=O)O)nn2)c(C(=O)O)c1 [XR22, (S)-5-Amino-2-(1-(4-carboxy-4-(4-(((2,4-diaminopteridin-6-yl)methyl)amino)benzamido)butyl)-1H-1,2,3-triazol-4-yl)benzoic acid] | IC50 (AU-565 cells; Table 1a): 0.9 nM

SMILES | IC50 (A-549 cells) | IC50 (SW-620 cells) | IC50 (SK-BR-3 cells; Table 1a) | also measured
Nc1nc(N)c2nc(CNc3ccc(C(=O)N[C@@H](CCCNC(=O)c4ccccc4C(=O)O)C(=O)O)cc3)cnc2n1 [Talotrexin, reference compound] | 1.7 nM | 1.74 nM | 1.83 nM | 
